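A five-concentration, 48-hour dose response in 96-well plates underlies each endpoint, interpolated linearly between surrounding concentrations. GI50 = concentration required for 50% inhibition of growth. TGI is the concentration that stops growth completely.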
Assays:
Experiment in all cases: NCI tumour cell line growth inhibition, 48 h
[1] = tested on: HT29 colon
[2] = tested on: LOX IMVI melanoma
[3] = tested on: SW-620 colon
[4] = tested on: MALME-3M melanoma
[5] = tested on: UACC-257 melanoma
[6] = tested on: HOP-62 NSCLC
[7] = tested on: HCT-116 colon
[8] = tested on: MDA-MB-435
[9] = tested on: NCI-H226 lung
[10] = tested on: SF-539 CNS
[11] = tested on: COLO 205 colon
[12] = tested on: KM12 colon
[13] = tested on: UACC-62 melanoma
[14] = tested on: RXF 393 renal
[15] = tested on: EKVX NSCLC
[16] = tested on: HOP-92 NSCLC
[17] = tested on: M14 melanoma
[18] = tested on: OVCAR-8 ovarian
[19] = tested on: MCF7 breast
[20] = tested on: OVCAR-3 ovarian
[21] = tested on: TK-10 renal
[22] = tested on: MOLT-4 leukemia
[23] = tested on: SF-295 CNS
[24] = tested on: SK-MEL-2 melanoma
[25] = tested on: SN12C renal
[26] = tested on: MDA-MB-231 breast
[27] = tested on: HS 578T breast
[28] = tested on: SK-MEL-5 melanoma
[29] = tested on: CAKI-1 renal
[30] = tested on: DU-145 prostate
[31] = tested on: SK-MEL-28 melanoma
[32] = tested on: ACHN renal
[33] = tested on: OVCAR-4 ovarian
[34] = tested on: IGROV1 ovarian
[35] = tested on: PC-3 prostate
[36] = tested on: MDA-N
[37] = tested on: NCI-H460 lung
[38] = tested on: NCI-H23 lung
[39] = tested on: SK-OV-3 ovarian
[40] = tested on: SNB-19 CNS
[41] = tested on: K-562 leukemia
[42] = tested on: CCRF-CEM leukemia
[43] = tested on: HL-60(TB) leukemia
[44] = tested on: HCT-15 colon
[45] = tested on: SR leukemia
[46] = tested on: RPMI-8226 leukemia
[47] = tested on: NCI/ADR-RES ovarian
[48] = tested on: U251 CNS
[49] = tested on: A549 NSCLC
[50] = tested on: UO-31 renal
[51] = tested on: OVCAR-5 ovarian
[52] = tested on: SF-268 CNS
[53] = tested on: HCC-2998 colon
[54] = tested on: T-47D breast
[55] = tested on: BT-549 breast
[56] = tested on: A498 renal
[57] = tested on: 786-0 renal
[58] = tested on: SNB-75 CNS
[59] = tested on: NCI-H522 lung

CC1(C)N/C(=C\C=O)C(C)(C)N1O
TGI [1]: > 100 µM
TGI [2]: > 100 µM
TGI [3]: > 100 µM
TGI [4]: > 100 µM
TGI [5]: > 100 µM
TGI [6]: > 100 µM
TGI [7]: > 100 µM
TGI [8]: > 100 µM
TGI [9]: > 100 µM
TGI [10]: > 100 µM
TGI [11]: > 100 µM
TGI [12]: > 100 µM
TGI [13]: > 100 µM
TGI [14]: > 100 µM
TGI [15]: > 100 µM
TGI [16]: > 100 µM
TGI [17]: > 100 µM
TGI [18]: > 100 µM
TGI [19]: > 100 µM
TGI [20]: > 100 µM
TGI [21]: > 100 µM
TGI [22]: > 100 µM
TGI [23]: > 100 µM
TGI [24]: > 100 µM
TGI [25]: > 100 µM
TGI [26]: > 100 µM
TGI [27]: > 100 µM
TGI [28]: > 100 µM
TGI [29]: > 100 µM
TGI [30]: > 100 µM
TGI [31]: > 100 µM
TGI [32]: > 100 µM
TGI [33]: > 100 µM
TGI [34]: > 100 µM
TGI [35]: > 100 µM
TGI [36]: > 100 µM
TGI [37]: > 100 µM
TGI [38]: > 100 µM
TGI [39]: > 100 µM
TGI [40]: > 100 µM
TGI [41]: > 100 µM
TGI [42]: > 100 µM
TGI [43]: > 100 µM
TGI [44]: > 100 µM
TGI [45]: > 100 µM
TGI [46]: > 100 µM
TGI [47]: > 100 µM
TGI [48]: > 100 µM
TGI [49]: > 100 µM
TGI [50]: > 100 µM
TGI [51]: > 100 µM
TGI [52]: > 100 µM
TGI [53]: > 100 µM

Cc1cc2c(C(C)C)c(O)c(O)cc2c(O)c1-c1c(C)cc2c(C(C)C)c(O)c(O)cc2c1O
GI50 [1]: 20.1 µM
TGI [1]: 39.6 µM
GI50 [2]: 4.42 µM
TGI [2]: 16.2 µM
GI50 [3]: 16.7 µM
TGI [3]: 40.5 µM
GI50 [4]: 10.9 µM
TGI [4]: 24.6 µM
GI50 [5]: 26.6 µM
TGI [5]: 65 µM
GI50 [54]: 19.1 µM
TGI [54]: 45.7 µM
GI50 [6]: 13 µM
TGI [6]: 30.2 µM
GI50 [7]: 3.98 µM
TGI [7]: 14 µM
GI50 [8]: 14.5 µM
TGI [8]: 31.3 µM
GI50 [9]: 16.5 µM
TGI [9]: 34.9 µM
GI50 [10]: 19.9 µM
TGI [10]: 43.5 µM
GI50 [55]: 14.4 µM
TGI [55]: 41.2 µM
GI50 [11]: 3.84 µM
TGI [11]: 15 µM
GI50 [12]: 11.6 µM
TGI [12]: 27.2 µM
GI50 [13]: 2.32 µM
TGI [13]: 14.3 µM
GI50 [14]: 15.1 µM
TGI [14]: 33.5 µM
GI50 [15]: 20.8 µM
TGI [15]: 68.6 µM
GI50 [16]: 3.13 µM
TGI [16]: 17.4 µM
GI50 [17]: 12.3 µM
TGI [17]: 27.6 µM
GI50 [18]: 15.2 µM
TGI [18]: 41.1 µM
GI50 [19]: 11.4 µM
TGI [19]: 29.5 µM
GI50 [20]: 14.4 µM
TGI [20]: 29.8 µM
GI50 [21]: 13.6 µM
TGI [21]: 83.4 µM
GI50 [22]: 10.6 µM
TGI [22]: 44.9 µM
GI50 [56]: 14.1 µM
TGI [56]: 32.2 µM
GI50 [23]: 22.5 µM
TGI [23]: 58 µM
GI50 [24]: 17.7 µM
TGI [24]: 33.9 µM
GI50 [25]: 8.03 µM
TGI [25]: 20.6 µM
GI50 [26]: 13.5 µM
TGI [26]: 34.8 µM
GI50 [27]: 19.3 µM
TGI [27]: 47.6 µM
GI50 [28]: 12.6 µM
TGI [28]: 26 µM
GI50 [29]: 19.2 µM
TGI [29]: 82.6 µM
GI50 [30]: 22 µM
TGI [30]: 78 µM
GI50 [57]: 16.7 µM
TGI [57]: 33.9 µM
GI50 [31]: 16.8 µM
TGI [31]: 32.8 µM
GI50 [32]: 8.66 µM
TGI [32]: 21.9 µM
GI50 [33]: 14 µM
TGI [33]: 33.8 µM
GI50 [34]: 10.1 µM
TGI [34]: 23.6 µM
GI50 [35]: 12.4 µM
TGI [35]: 27.7 µM
GI50 [37]: 11.8 µM
TGI [37]: 40 µM
GI50 [58]: 24.5 µM
TGI [58]: 60 µM
GI50 [38]: 18.4 µM
TGI [38]: 37.5 µM
GI50 [39]: 23.9 µM
TGI [39]: 73.5 µM
GI50 [40]: 14.9 µM
TGI [40]: 35.6 µM
GI50 [41]: 5.72 µM
TGI [41]: 27.7 µM
GI50 [42]: 3.91 µM
TGI [42]: 21.5 µM
GI50 [43]: 9.07 µM
TGI [43]: 34.1 µM
GI50 [44]: 5.31 µM
TGI [44]: 20.9 µM
GI50 [59]: 10.1 µM
TGI [59]: 24.5 µM
GI50 [45]: 8.24 µM
TGI [45]: 28.4 µM
GI50 [46]: 13.1 µM
TGI [46]: 39.3 µM
GI50 [47]: 20.7 µM
TGI [47]: 48.9 µM
GI50 [48]: 4.16 µM
TGI [48]: 14.5 µM
GI50 [49]: 17.2 µM
TGI [49]: 47.2 µM
GI50 [50]: 14.9 µM
TGI [50]: 29.1 µM
GI50 [51]: 17.9 µM
TGI [51]: 36.5 µM
GI50 [52]: 12 µM
TGI [52]: 34.6 µM
GI50 [53]: 16.4 µM
TGI [53]: 30 µM

CCC1(c2ccccc2)Sc2ccccc2-n2cccc2C1=O (configuration not stated)
TGI [1]: > 10 µM
TGI [3]: > 10 µM
TGI [4]: > 10 µM
TGI [5]: > 10 µM
TGI [54]: > 10 µM
TGI [6]: > 10 µM
TGI [11]: > 10 µM
TGI [12]: > 10 µM
TGI [13]: > 10 µM
TGI [14]: > 10 µM
TGI [15]: > 10 µM
TGI [17]: > 10 µM
TGI [18]: > 10 µM
TGI [19]: > 10 µM
TGI [21]: > 10 µM
TGI [22]: > 10 µM
TGI [23]: > 10 µM
TGI [25]: > 10 µM
TGI [26]: > 10 µM
TGI [28]: > 10 µM
TGI [29]: > 10 µM
TGI [30]: > 10 µM
TGI [57]: > 10 µM
TGI [31]: > 10 µM
TGI [34]: > 10 µM
TGI [35]: > 10 µM
TGI [36]: > 10 µM
TGI [58]: > 10 µM
TGI [38]: > 10 µM
TGI [39]: > 10 µM
TGI [41]: > 10 µM
TGI [42]: > 10 µM
TGI [43]: > 10 µM
TGI [44]: > 10 µM
TGI [45]: > 10 µM
TGI [46]: > 10 µM
TGI [49]: > 10 µM
TGI [53]: > 10 µM

— PubChem BioAssay (NCI)
